# Results reported in publication PMC8819907 (Journal of Experimental & Clinical Cancer Research : CR, 2022).
# pIC50: −log10 of the molar value. “Also recorded” adds a separate entry of the source. Where two headings read alike, the source gives them in different places.
# Columns and labels:
# MEK1 = system: MEK1; parameters: method as in ref 17 (a number printed in a supplementary file, which may have a reference list of its own: not looked up in the article's list); details: read-out: IC50 against MEK1; cited from earlier work
# [1] = system: unresectable stage IIIC or IV cutaneous melanoma with BRAF V600E or V600K mutation; details: cited from earlier work
# rabbits = details: rabbit, in vivo; cited from earlier work
# [2] = system: BRAF V600E or V600K mutation-positive melanoma; details: 40 patients with prior BRAF inhibitor; 2 mg PO QD; cited from earlier work
# [3] = system: PC3, BxPC3, and BT474 xenograft lines; details: no tumor regressions; cited from earlier work
# [4] = system: advanced cancer patients with varying degrees of hepatic dysfunction
# [5] = system: advanced cancer patients with varying degrees of hepatic dysfunction; details: human, in vivo
# A549 xenograft = system: A549 xenograft; parameters: method as in ref 17 (a number printed in a supplementary file, which may have a reference list of its own: not looked up in the article's list); details: cited from earlier work
# [6] = cited from earlier work
# [7] = cited from earlier work; remark: listed apart in the source
# clinical = details: human, 2 mg
# [8] = system: untreated pancreatic cancer; parameters: method as in ref 25 (a number printed in a supplementary file, which may have a reference list of its own: not looked up in the article's list); details: gemcitabine plus trametinib 2 mg QD; cited from earlier work
# [9] = system: BRAF-mutant Colo205, A375P F11s, and HT-29 human tumor xenograft; details: 0.3 mg/kg; cited from earlier work
# CYP enzymes = details: cited from earlier work
# [10] = system: acute myeloid leukemia or myelodysplastic syndrome; details: cited from earlier work
# HCT-116 xenograft = system: HCT-116 xenograft; parameters: method as in ref 17 (a number printed in a supplementary file, which may have a reference list of its own: not looked up in the article's list); details: cited from earlier work
# CYP 2B6 and 3A4 = details: cited from earlier work
# MEK2 = system: MEK2; parameters: method as in ref 17 (a number printed in a supplementary file, which may have a reference list of its own: not looked up in the article's list); details: read-out: IC50 against MEK2; cited from earlier work
# pMEK1 kinase activity = target: pMEK1 kinase activity; parameters: method as in ref 19 (a number printed in a supplementary file, which may have a reference list of its own: not looked up in the article's list); details: cited from earlier work
# [11] = dose normalized to 2 mg
# [12] = 13 patients with KRAS or NRAS mutations
smiles,measurement,setting,value
"CC(=O)Nc1cccc(-n2c(=O)n(C3CC3)c(=O)c3c(Nc4ccc(I)cc4F)n(C)c(=O)c(C)c32)c1 [Trametinib, equimolecular combination of acetamide, N-[3-[3-cyclopropyl-5-[(2-fluoro-4-iodophenyl)amino]-3,4,6,7-tetrahydro6,8-dimethyl-2,4,7-trioxopyrido[4,3-d]pyrimidin-1(2H)-yl]phenyl] with 1,1’-sulfinylbis[methane]]",pIC50,MEK1,9.15
same,"CR, n (%)",[1],4 (2%) n (%)
same,Objective Response Rate (95% CI),[1],22%
same,"PR, n (%)",[1],43 (20%) n (%)
same,6-month OS rate,[1]; in vivo,81%
same,"PFS Median, months (95% CI)",[1]; investigator-assessed,"4.8 (4.3, 4.9) months"
same,PFS HR (95% CI),"[1]; trametinib vs chemotherapy, P<0.0001","0.47 (0.34, 0.65)"
same,Embryofetal toxicity,rabbits,embryotoxic and abortifacient
same,confirmed PR or CR,[2],None of the patients
same,TGI,[3],44-46%
same,Death related to TRAEs,[4]; Mild 2 mg,0 (0%)
same,Death related to TRAEs,[4]; Mod DL1 1.5 mg,0 (0%)
same,Death related to TRAEs,[4]; Mod DL+1 2 mg,0 (0%)
same,Death related to TRAEs,[4]; Norm 2 mg,0 (0%)
same,Death related to TRAEs,[4]; Sev DL1 1 mg,0 (0%)
same,Death related to TRAEs,[4]; Sev DL+1 1.5 mg,0 (0%)
same,Death related to TRAEs,[4]; Total Patients,0 (0%)
same,Death related to TRAEs,"[4]; Total Patients, listed as trametinib",No treatment related deaths
same,Alanine aminotransferase increased,"[4]; human, in vivo",9 (20%)
same,Anemia,"[4]; human, in vivo",10 (23%)
same,Blood alkaline phosphatase increased,"[4]; human, in vivo",9 (20%)
same,Grade 3 TRAEs,"[4]; human, in vivo",2 events
same,Hypertension,"[4]; human, in vivo",8 (18%)
same,Hypomagnesemia,"[4]; human, in vivo",8 (18%)
same,Hyponatremia,"[4]; human, in vivo",9 (20%)
same,Maculopapular rash,"[4]; human, in vivo",11 (23%)
same,Mucositis,"[4]; human, in vivo",6 (14%)
same,Thrombocytopenia,"[4]; human, in vivo",10 (23%)
same,Treatment discontinuation due to TRAEs,"[4]; human, in vivo",3 (7%)
same,Treatment discontinuation due to non-TRAEs,"[4]; human, in vivo",10 (23%)
same,Vomiting,"[4]; human, in vivo",9 (20%)
same,grade 3 gamma-glutamyl transferase increased,"[4]; human, in vivo",1 patient
same,grade 3 pneumonitis,"[4]; human, in vivo",1 patient
same,RP2D,[5],2 mg QD
same,TGI,A549 xenograft,75%
same,"difference in exposure, mild hepatic impairment vs normal hepatic function",[6]; 64 ([…]) subjects with mild hepatic impairment (NCI classification),2%
same,"oral clearance and exposure, mild hepatic impairment vs normal hepatic function",[6]; population PK analysis,not significantly different
same,Cmax,[7]; 2 mg QD on Day 15,23 ng/mL
same,mean AUC0-24,[7]; 2 mg QD on Day 15,376 ng·h/mL
same,"Between-subject variability in exposure, AUC0-24",[7]; across all dosing regimens,20-41%
same,"Between-subject variability in exposure, Cmax",[7]; across all dosing regimens,27-50%
same,effective t1/2,[7]; in vivo,approximately 4.5 days
same,steady state reached by,[7]; in vivo,~15 days
same,Cmax,clinical; in vivo,27.6 ng/mL
same,AUC(0-t),"clinical; plasma, oral, AUC0 − 24, Geo mean (%CV), Mild (n = 6), dose normalized to 2 mg",352 ng·h/mL
same,AUC(0-t),"clinical; plasma, oral, AUC0 − 24, Geo mean (%CV), Mod (n = 3), dose normalized to 2 mg",311 ng·h/mL
same,AUC(0-t),"clinical; plasma, oral, AUC0 − 24, Geo mean (%CV), Sev (n = 3), dose normalized to 2 mg",229 ng·h/mL
same,AUC(0-t),"clinical; plasma, oral, AUC0 − 24, Mean (±SD), Mild (n = 6), dose normalized to 2 mg",388 ng·h/mL
same,AUC(0-t),"clinical; plasma, oral, AUC0 − 24, Mean (±SD), Mod (n = 3), dose normalized to 2 mg",312 ng·h/mL
same,AUC(0-t),"clinical; plasma, oral, AUC0 − 24, Mean (±SD), Norm (n = 10), dose normalized to 2 mg",469 ng·h/mL
same,AUC(0-t),"clinical; plasma, oral, AUC0 − 24, Mean (±SD), Sev (n = 3), dose normalized to 2 mg",240 ng·h/mL
same,Cmax,"clinical; plasma, oral, Cmax, Geo mean (%CV), Mild (n = 6), dose normalized to 2 mg",26.2 ng/mL
same,Cmax,"clinical; plasma, oral, Cmax, Geo mean (%CV), Mod (n = 3), dose normalized to 2 mg",16.8 ng/mL
same,Cmax,"clinical; plasma, oral, Cmax, Geo mean (%CV), Norm (n = 10), dose normalized to 2 mg",26.2 ng/mL
same,Cmax,"clinical; plasma, oral, Cmax, Geo mean (%CV), Sev (n = 3), dose normalized to 2 mg",15.3 ng/mL
same,Cmax,"clinical; plasma, oral, Cmax, Mean (±SD), Mild (n = 6), dose normalized to 2 mg",29.5 ng/mL
same,Cmax,"clinical; plasma, oral, Cmax, Mean (±SD), Mod (n = 3), dose normalized to 2 mg",16.9 ng/mL
same,Median OS,[8],8.4 months
same,ORR,[8],22%
same,median PFS,[8],16 weeks
same,tumor regression in the Colo205 model,[9],tumor regression was observed
same,"inhibitor of CYP 1A2, 2A6, 2B6, 2C9, 2C19, 2D6 and 3A4",CYP enzymes,not an inhibitor
same,"inhibitor of CYP1A2, CYP2A6, CYP2B6, CYP2D6, and CYP3A4",CYP enzymes; in vitro studies,not an inhibitor
same,inhibitor of CYP 2C8,CYP enzymes; in vitro,in vitro inhibitor
same,best response CRs,[10]; [12],3
same,best response PD,[10]; [12],1
same,best response SD,[10]; [12],7
same,PRs,[10]; 26 patients with wild-type RAS or unknown mutation,2
same,patients withdrew due to an AE,"[10]; AML or MDS, 1-2 mg QD",23%
same,TGI,HCT-116 xenograft,83%
same,CYP 2B6 and 3A4 inducer,CYP 2B6 and 3A4,weak
same,pIC50,pMEK1 kinase activity,7.89
same,"CLssF, Geo mean (%CV)",[11]; Mild (n = 6),5680.0 (45.5) mL/hr
same,"CLssF, Mean (±SD)",[11]; Mild (n = 6),6200.0 (±2818.6) mL/hr
same,"Cavg, Geo mean (%CV)",[11]; Mild (n = 6),14.7 (51.9) ng/mL
same,"Cavg, Mean (±SD)",[11]; Mild (n = 6),16.2 (±8.4) ng/mL
same,"Cmin, Geo mean (%CV)",[11]; Mild (n = 6),10.8 (57.3) ng/mL
same,"Cmin, Mean (±SD)",[11]; Mild (n = 6),12.1 (±7.0) ng/mL
same,"CLssF, Geo mean (%CV)",[11]; Mod (n = 3),6431.6 (8.4) mL/hr
same,"CLssF, Mean (±SD)",[11]; Mod (n = 3),6446.4(±542.6) mL/hr
same,"Cavg, Geo mean (%CV)",[11]; Mod (n = 3),13.0 (8.1) ng/mL
same,"Cavg, Mean (±SD)",[11]; Mod (n = 3),13.0 (±1.1) ng/mL
same,"Cmin, Geo mean (%CV)",[11]; Mod (n = 3),10.4 (22.4) ng/mL
same,"Cmin, Mean (±SD)",[11]; Mod (n = 3),10.5 (±2.4) ng/mL
same,"CLssF, Geo mean (%CV)",[11]; Norm (n = 10),4449.0 (36.0) mL/hr
same,"CLssF, Mean (±SD)",[11]; Norm (n = 10),4675.0 (±1683.6) mL/hr
same,"Cavg, Geo mean (%CV)",[11]; Norm (n = 10),18.7 (28.1) ng/mL
same,"Cavg, Mean (±SD)",[11]; Norm (n = 10),19.5 (±5.5) ng/mL
same,"Cmin, Geo mean (%CV)",[11]; Norm (n = 10),14.4 (29.8) ng/mL
same,"Cmin, Mean (±SD)",[11]; Norm (n = 10),15.1 (±4.5) ng/mL
same,"CLssF, Geo mean (%CV)",[11]; Sev (n = 3),8736.3 (36.5) mL/hr
same,"CLssF, Mean (±SD)",[11]; Sev (n = 3),9141.3 (±3337.1) mL/hr
same,"Cavg, Geo mean (%CV)",[11]; Sev (n = 3),9.5 (36.4) ng/mL
same,"Cavg, Mean (±SD)",[11]; Sev (n = 3),10.0 (±3.6) ng/mL
same,"Cmin, Geo mean (%CV)",[11]; Sev (n = 3),7.6 (32.3) ng/mL
same,"Cmin, Mean (±SD)",[11]; Sev (n = 3),7.9 (±2.5) ng/mL
same,"differences of PK parameters (Cmax, Cmin, Cavg, AUC0 − 24) between hepatic function groups",[11]; ANOVA,no significant differences; also recorded: not statistically different
